Measurements published in publication PMC12196007 (Molecules, 2025).
Where “and” joins values, the source holds several entries; their conditions need not be identical. Identical values can stand only once. Like-named read-outs stand apart in the source and are kept apart here.

Key:
[1] = In vitro drug release (dialysis bag, PBS); format: physicochemical
Procedure: The release media were designed to simulate physiological conditions of the human gastrointestinal tract: pH 2.0 (simulated gastric fluid), pH 6.8 (simulated intestinal fluid), and pH 7.4 (to mimic the alkaline colonic terminus). […] Aliquots (0.5 mL) were collected at predetermined intervals (0.5, 1, 2, 4, 6, 8, 12, and 24 h), with the release medium replenished immediately after each sampling to maintain sink conditions. The experiment was repeated three times. The drug release was quantified using a validated HPLC method. Cumulative release percentages were plotted against time, and release kinetics were analyzed using four models: zero-order kinetics, first-order kinetics, Higuchi equation, and Weibull distribution function. Key parameters, including T50 (time required for 50% drug dissolution) and Td (time required for 63.2% drug dissolution), were calculated to evaluate pH-dependent release profiles.

Caco-2 cells = assay: Cellular uptake in Caco-2 cell monolayer; format: in vitro ADME, human; settings: Caco-2, 200 μg·mL−1 CUR, 20 min
Procedure: Caco-2 cells were seeded into the donor chamber of Transwell inserts at a density of 1 × 10^5 cell·mL^−1 and cultured in complete medium. Transepithelial electrical resistance (TEER) was measured on the 0th, 3rd, 5th, 7th, 10th, and 15th days to monitor monolayer integrity. A TEER value exceeding 700 Ω·cm² was established as the threshold for successful formation of the human intestinal epithelial barrier model. Following model validation, the cell surface was equilibrated with PBS for 30 min and rinsed to remove debris. […] Cellular uptake was terminated by rapid washing with ice-cold PBS to remove surface-bound drug and nonviable cells. […] Cellular uptake was calculated according to Equation (4).
The established Caco-2 cell monolayer model imitating human intestinal epithelium was equilibrated in pH 7.4 PBS at 37 °C within a CO2 incubator for 30 min. After removal of PBS, the cell surface was rinsed three times. […] The uptake process was terminated by ice-cold PBS, and residual solutions were removed by washing. Cells were then scraped into centrifuge tubes, sonicated, and quantified for uptake measurements.

[2] = 2 h incubation of CUR solutions with intestinal segments (residual CUR); format: in vitro ADME, rats
[3] = In situ single-pass intestinal perfusion; format: in vivo, Sprague–Dawley (SD) rats; settings: for Papp: both sexes, Sprague-Dawley, rat, other: in situ single-pass intestinal perfusion, read-out: Peff (effective permeability coefficient)
Procedure: The rats were anesthetized and secured in a supine position on a surgical platform maintained at 37 °C. […] A 10 cm intestinal segment was isolated, and incisions were made at both ends. Silicone tubes were inserted into the incisions and ligated. […] Subsequently, the test sample was perfused through the intestinal loop. […] The collected samples were centrifuged, and the supernatant was mixed with methanol to precipitate proteins. After a second centrifugation, the resulting supernatant was analyzed by HPLC.

[4] = In vivo pharmacokinetic study, oral gavage; design: species or system SD rats
Procedure: The analysis was performed on a Q Exactive™ hybrid quadrupole-Orbitrap™ mass spectrometer (Thermo Fisher Scientific, USA) with the following parameters: Chromatographic separation was achieved by Agilent ZORBAX SB-C18 column (150 mm × 4.6 mm, 5 μm) with a mobile phase of acetonitrile and 0.1% formic acid aqueous solution (48:52, v/v) at a flow rate of 1 mL·min^−1 while maintaining the column temperature at 30 °C. The mass spectrometer operated in positive ion mode with an electrospray ionization (ESI) source, employing multiple reaction monitoring (MRM) for detection. Key ionization parameters included a capillary voltage of 3.0 kV and nitrogen as the collision gas.
Twelve SD rats (220 ± 20 g, equal numbers of males and females) were fasted for 24 h with free access to water and randomly allocated into two groups (n = 6 per group). […] Blood samples (~0.5 mL) were collected from the jugular vein into anticoagulant tubes at 0, 0.25, 0.5, 1, 2, 4, 6, 8, 12, and 24 h after administration. After centrifugation to collect the supernatant, samples were spiked with 20 μL of a 100 μg·mL^−1 internal standard solution, extracted twice with ethyl acetate for protein precipitation, and the combined organic phases were evaporated using a refrigerated vacuum concentrator.

[5] = Stability of CUR sample solutions at room temperature (HPLC method validation); format: physicochemical; settings: 0-20 h
Procedure: 2.4 Precision and Stability […]
was diluted to three concentration levels: low (1 μg·mL-1), medium (10 μg·mL-1), and […]
content was measured by HPLC in triplicate to assess intraday precision. The same samples were analyzed once daily for five consecutive days to assess interday […]
temperature. Samples were collected at 0, 4, 8, 12, and 20 hours and analyzed by […]
for low, medium, and high concentrations, respectively. The interday RSD values were 1.97%, 2.00%, and 1.94%, indicating good method precision. Stability results […]
temperature for up to 20 hours. […]

[6] = cited from earlier work
[7] = both sexes, Sprague-Dawley, rat, plasma, po, 50 mg/kg

Cumulative release of CUR at 4 h ([1]; 4 h): ~80%
Cumulative release rate at 24 h ([1]; pH 2.0, 24 h): 88.89%
Cumulative release rate at 24 h ([1]; pH 6.8, 24 h): 90.17%
Cumulative release rate at 24 h ([1]; pH 7.4, 24 h): 86.64%
Drug Intake, mean (x¯) (Caco-2 cells; n = 3): 43.82 ± 1.74 µg/mg
Residual CUR percentage ([2]; colonic segment): 92.90 ± 0.96%
Residual CUR percentage ([2]; duodenal segment): 99.63 ± 0.34%
Residual CUR percentage ([2]; ileal segment): 94.41 ± 1.57%
Residual CUR percentage ([2]; jejunal segment): 95.63 ± 0.47%
Papp ([3]; colon): 83 ± 1 nm/s
Papp ([3]; duodenum): 272 ± 5 nm/s
Papp ([3]; ileum): 233 ± 11 nm/s
Papp ([3]; jejunum): 261 ± 37 nm/s
Ka (absorption rate constant) ([3]; colon): 0.29 ± 0.0095 min⁻¹
Remaining dosage ([3]; colon, 15 min): 97.47 ± 0.83%
Remaining dosage ([3]; colon, 30 min): 92.6 ± 1.04%
Remaining dosage ([3]; colon, 45 min): 87.97 ± 1.07%
Remaining dosage ([3]; colon, 60 min): 79.51 ± 3.48%
Remaining dosage ([3]; colon, 75 min): 78.03 ± 0.99%
Remaining dosage ([3]; colon, 90 min): 73.23 ± 0.45%
Remaining dosage ([3]; colon, 105 min): 70.98 ± 0.98%
Remaining dosage ([3]; colon, 120 min): 66.55 ± 1.07%
Ka (absorption rate constant) ([3]; duodenum): 0.52 ± 0.0048 min⁻¹
Remaining dosage ([3]; duodenum, 15 min): 93.61 ± 0.59%
Remaining dosage ([3]; duodenum, 30 min): 89.22 ± 1.18%
Remaining dosage ([3]; duodenum, 45 min): 79.11 ± 0.58%
Remaining dosage ([3]; duodenum, 60 min): 69.18 ± 1.92%
Remaining dosage ([3]; duodenum, 75 min): 61.93 ± 1.54%
Remaining dosage ([3]; duodenum, 90 min): 54.95 ± 0.33%
Remaining dosage ([3]; duodenum, 105 min): 45.36 ± 1.72%
Remaining dosage ([3]; duodenum, 120 min): 42.13 ± 0.88%
Ka (absorption rate constant) ([3]; ileum): 0.47 ± 0.0208 min⁻¹
Remaining dosage ([3]; ileum, 15 min): 93.68 ± 0.37%
Remaining dosage ([3]; ileum, 30 min): 89.84 ± 0.89%
Remaining dosage ([3]; ileum, 45 min): 82.04 ± 1.06%
Remaining dosage ([3]; ileum, 60 min): 72.17 ± 1.08%
Remaining dosage ([3]; ileum, 75 min): 64.11 ± 1.25%
Remaining dosage ([3]; ileum, 105 min): 51.48 ± 1.18%
Remaining dosage ([3]; ileum, 120 min): 45.11 ± 3.27%
Ka (absorption rate constant) ([3]; jejunum): 0.47 ± 0.0088 min⁻¹
Remaining dosage ([3]; jejunum, 15 min): 94.43 ± 2.05%
Remaining dosage ([3]; jejunum, 30 min): 90.52 ± 0.80%
Remaining dosage ([3]; jejunum, 45 min): 87.97 ± 0.43%
Remaining dosage ([3]; jejunum, 60 min): 77.07 ± 0.97%
Remaining dosage ([3]; jejunum, 75 min): 70.44 ± 0.82%
Remaining dosage ([3]; jejunum, 90 min): 62.99 ± 0.92%
Remaining dosage ([3]; jejunum, 105 min): 54.99 ± 0.74%
Remaining dosage ([3]; jejunum, 120 min): 46.26 ± 0.94%
AUC(0-inf) [4, 7]: 0.144 ± 0.0254 µg·h/mL
AUC(0-t) [4, 7]: 0.106 ± 0.0218 µg·h/mL
Cmax [4, 7]: 0.0649 ± 0.012 µg/mL
Tmax [4, 7]: 1 h
half-life [4, 7]: 3.97 ± 1.48 h
MRT last ([4]; both sexes, Sprague-Dawley, rat, plasma, po, 50 mg/kg, read-out: MRT0-t): 2.35 ± 0.67 h
MRT inf ([4]; both sexes, Sprague-Dawley, rat, plasma, po, 50 mg/kg, read-out: MRT0-∞): 5.13 ± 1.36 h
Time within which almost completely eliminated ([4]; rats, oral, 50 mg·kg−1): ≤ 4 h
Stability: RSD of CUR concentration ([5]; CUR solution for intestinal mucus penetration study, 10 μg·mL-1, room temperature): 0.28%
Stability: RSD of CUR concentration ([5]; CUR solution for release studies, 50 μg·mL-1, room temperature): 0.63%
Structure (SMILES): COc1cc(/C=C/C(=O)CC(=O)/C=C/c2ccc(O)c(OC)c2)ccc1O [CUR, Curcumin]
Drug Intake (single replicates) (Caco-2 cells; per mg protein): 42.03 µg/mg and 44.28 µg/mg and 45.46 µg/mg
Plasma concentrations as share of the administered dose (oral bioavailability) [6]: ~1%
